Reference: US20150344485A1, “BICYCLIC PYRIMIDONE COMPOUNDS AS INHIBITORS OF LP-PLA2” (GLAXOSMITHKLINE INTELLECTUAL PROPERTY DEVELOPMENT LIMITED, priority 2013, published 2015)
Like-named read-outs stand apart in the source and are kept apart here.

Key:
Lp-PLA2 in human plasma = molecular target: T1, Lp-PLA2 in human plasma (Homo sapiens, UniProt Q13093); test: Lp-PLA2 human plasma assay (Thio-PAF assay); type: biochemical; details: pooled human plasma; read-out: pIC50 values in the thio-PAF assay (converted)
T1 construct: from tissue; host or cells: pooled human plasma
T1 sequence (Q13093 22-441): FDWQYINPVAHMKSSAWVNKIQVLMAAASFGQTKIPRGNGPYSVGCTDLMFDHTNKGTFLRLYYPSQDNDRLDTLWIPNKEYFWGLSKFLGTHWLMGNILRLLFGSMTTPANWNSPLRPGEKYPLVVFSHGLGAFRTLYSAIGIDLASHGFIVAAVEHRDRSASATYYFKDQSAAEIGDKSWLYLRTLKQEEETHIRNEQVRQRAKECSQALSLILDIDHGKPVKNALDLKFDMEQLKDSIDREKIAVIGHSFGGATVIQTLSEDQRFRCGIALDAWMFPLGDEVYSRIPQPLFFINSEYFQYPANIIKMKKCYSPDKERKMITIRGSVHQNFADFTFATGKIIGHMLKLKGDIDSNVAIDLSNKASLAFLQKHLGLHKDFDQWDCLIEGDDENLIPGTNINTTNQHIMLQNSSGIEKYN
Method in brief: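 Pooled human plasma preincubated 30 min with compound, then 2-thio-PAF substrate added with CPM and NEM in 50 mM HEPES pH 7.4, 150 mM NaCl, 1 mM CHAPS. Quenched with TFA after 2 min, incubated 40 min at room temperature, and read by fluorescence at ex 380/em 485 nm. Values given as pIC50.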

[1] = molecular target: T2, recombinant human Lp-PLA2 (Homo sapiens, UniProt Q13093); test: Recombinant human Lp-PLA2 assay (rhLp-PLA2, PED6 assay); type: biochemical
T2 sequence (Q13093 22-441): T1 sequence (Q13093 22-441)
Source text: (1) Recombinant Human Lp-PLA2 Assay (rhLp-PLA2) (Also Referred to as “PED6” Assay)
N-((6-(2,4-dinitrophenyl)amino)-hexanoyl)-2-(4,4-difluoro-5,7-dimethyl-4-bora-3a,4a-diaza-s-indacene-3-pentanoyl)-1-hexadecanoyl-sn-glycero-3-phosphoethanolamine, triethylammonium salt (PED6) is a commercially available fluorescently-labeled phospholipid, which is commercially available from Invitrogene and Molecular Probes. There is a quenching para-nitro phenyl (PNP) group in the sn3 position and a Bodipy fluorescein (FL) group in the sn2 position. Upon cleavage with Lp-PLA2, the Bodipy FL group is liberated and then may result in an increase in fluorescence. Inhibitors of Lp-PLA2 therefore prevent this cleavage and no fluorescent increase is observed.
The PED6 assay was run as an unquenched 10 μL assay. The source plate containing the compounds to be tested was prepared by making 1:3 (by volume) serial dilution of the compounds within DMSO on 384-well microplate. Then, 0.01 μL of the compounds on compound source plate were transferred into 384 well Greiner 784076 (black) plates using ECHO liquid dispenser. 5 μL of recombinant human Lp-PLA2 enzyme (4 nM (or 110 pM) rhLp-PLA2 in assay buffer of 50 mM HEPES, pH 7.4, 150 mM NaCl, 1 mM CHAPS) was added to each well of the plate. Plates were centrifuged for 10 sec at 500 rpm. After 30 minutes preincubation, 5 μL of substrate (4 μM (or 5 μM) PED6 [from 5 mM DMSO stock] in assay buffer of 50 mM HEPES, pH 7.4, 150 mM NaCl, 1 mM CHAPS) was added to 384 well Greiner 784076 (black) plates. Plates were centrifuged for 10 sec at 500 rpm. The plate was covered to protect it from light and incubated for 20 min at room temperature. The plates were read for fluorescence intensity at ex: 480/em: 540 using ViewLux microplate imager for Envision spectrofluroimeters. pIC50 data, curve and QC analysis was conducted by using XL fit module in Excel.

[2] = read-out: pIC50 values in the recombinant human Lp-PLA2 assay (converted)

Row | SMILES | IC50 (Lp-PLA2 in human plasma) | IC50 [1, 2] | IC50 ([1]; read-out: rhLp-PLA2 (PED6 assay) (pIC50) (converted))
1 | C[C@@H]1CCn2c(cc(OCc3ccc(Oc4ccc(F)c(F)c4)c(F)c3)nc2=O)N1C [E80, (R)-8-((4-(3,4-difluorophenoxy)-3-fluorobenzyl)oxy)-1,2-dimethyl-3,4-dihydro-1H-pyrimido[1,6-a]pyrimidin-6(2H)-one] | ≤ 100 nM | ≤ 1 nM | 
2 | C[C@H]1CCn2c(cc(OCc3ccc(Oc4ccc(F)c(C(F)(F)F)c4)cc3)nc2=O)N1C [E84, (S)-8-((4-(4-fluoro-3-(trifluoromethyl)phenoxy)benzyl)oxy)-1,2-dimethyl-3,4-dihydro-1H-pyrimido[1,6-a]pyrimidin-6(2H)-one] | ≤ 10 nM | ≤ 1 nM | 
3 | C[C@@H]1CCn2c(cc(OCc3ccc(Oc4ccc(F)c(C(F)(F)F)c4)cc3)nc2=O)N1C [E87, (R)-8-((4-(4-fluoro-3-(trifluoromethyl)phenoxy)benzyl)oxy)-1,2-dimethyl-3,4-dihydro-1H-pyrimido[1,6-a]pyrimidin-6(2H)-one] | ≤ 10 nM | ≤ 1 nM | 
4 | CN1c2cc(OCc3cc(F)c(Oc4ccc(C(F)(F)F)nc4)c(F)c3)nc(=O)n2CCC1(C)C [E88, 8-((3,5-difluoro-4-((6-(trifluoromethyl)pyridin-3-yl)oxy)benzyl)oxy)-1,2,2-trimethyl-3,4-dihydro-1H-pyrimido[1,6-a]pyrimidin-6(2H)-one] | ≤ 100 nM | ≤ 1 nM | 
5 | C[C@H]1CCn2c(cc(OCc3ccc(Oc4cccc(C(F)(F)F)c4)c(F)c3)nc2=O)N1C [E91, (S)-8-((3-fluoro-4-(3-(trifluoromethyl)phenoxy)benzyl)oxy)-1,2-dimethyl-3,4-dihydro-1H-pyrimido[1,6-a]pyrimidin-6(2H)-one] | ≤ 10 nM | ≤ 1 nM | 
6 | C[C@H]1CCn2c(cc(OCc3ccc(Oc4cccc(F)c4)c(C#N)c3)nc2=O)N1C [E92, (S)-5-(((1,2-dimethyl-6-oxo-2,3,4,6-tetrahydro-1H-pyrimido[1,6-a]pyrimidin-8-yl)oxy)methyl)-2-(3-fluorophenoxy)benzonitrile] | ≤ 10 nM | ≤ 1 nM | 
7 | C[C@H]1CCn2c(cc(OCc3cc(F)c(Oc4ccc(F)cc4)c(F)c3)nc2=O)N1C [E94, (S)-8-((3,5-difluoro-4-(4-fluorophenoxy)benzyl)oxy)-1,2-dimethyl-3,4-dihydro-1H-pyrimido[1,6-a]pyrimidin-6(2H)-one] | ≤ 100 nM | ≤ 1 nM | 
8 | C[C@H]1CCn2c(cc(OCc3cc(F)c(Oc4ccc(Cl)cc4)c(F)c3)nc2=O)N1C [E95, (S)-8-((4-(4-chlorophenoxy)-3,5-difluorobenzyl)oxy)-1,2-dimethyl-3,4-dihydro-1H-pyrimido[1,6-a]pyrimidin-6(2H)-one] | ≤ 100 nM | ≤ 1 nM | 
9 | C[C@@H]1CCn2c(cc(OCc3cc(F)c(Oc4cnc(C(F)(F)F)nc4)c(F)c3)nc2=O)N1C [E97, (R)-8-((3,5-difluoro-4-((2-(trifluoromethyl)pyrimidin-5-yl)oxy)benzyl)oxy)-1,2-dimethyl-3,4-dihydro-1H-pyrimido[1,6-a]pyrimidin-6(2H)-one] | ≤ 10 nM | ≤ 1 nM | 0.1 nM
10 | C[C@H]1CCn2c(cc(OCc3ccc(Oc4ccc(F)c(F)c4)c(C#N)c3)nc2=O)N1C [E99, (S)-2-(3,4-difluorophenoxy)-5-(((1,2-dimethyl-6-oxo-2,3,4,6-tetrahydro-1H-pyrimido[1,6-a]pyrimidin-8-yl)oxy)methyl)benzonitrile] | ≤ 10 nM | ≤ 1 nM | 
11 | C[C@@H]1CCn2c(cc(OCc3cc(F)c(Oc4cccc(F)c4)c(F)c3)nc2=O)N1C [E103, (R)-8-((3,5-difluoro-4-(3-fluorophenoxy)benzyl)oxy)-1,2-dimethyl-3,4-dihydro-1H-pyrimido[1,6-a]pyrimidin-6(2H)-one] | ≤ 100 nM | ≤ 1 nM | 
12 | C[C@H]1CCn2c(cc(OCc3cc(F)c(Oc4ccc(F)c(Cl)c4)c(F)c3)nc2=O)N1C [E106, (S)-8-((4-(3-chloro-4-fluorophenoxy)-3,5-difluorobenzyl)oxy)-1,2-dimethyl-3,4-dihydro-1H-pyrimido[1,6-a]pyrimidin-6(2H)-one] | ≤ 100 nM | ≤ 1 nM | 

More lines, now with the values ahead:

Row | IC50 (Lp-PLA2 in human plasma) | IC50 [1, 2] | IC50 ([1]; read-out: rhLp-PLA2 (PED6 assay) (pIC50) (converted)) | SMILES
13 | ≤ 10 nM | ≤ 1 nM |  | C[C@H]1CCn2c(cc(OCc3ccc(Oc4ccc(F)c(Cl)c4)c(C#N)c3)nc2=O)N1C [E85, (S)-2-(3-chloro-4-fluorophenoxy)-5-(((1,2-dimethyl-6-oxo-2,3,4,6-tetrahydro-1H-pyrimido[1,6-a]pyrimidin-8-yl)oxy)methyl)benzonitrile]
14 | ≤ 100 nM | ≤ 1 nM |  | C[C@H]1CCn2c(cc(OCc3ccc(Oc4ccc(F)c(F)c4)c(F)c3)nc2=O)N1C [E86, (S)-8-((4-(3,4-difluorophenoxy)-3-fluorobenzyl)oxy)-1,2-dimethyl-3,4-dihydro-1H-pyrimido[1,6-a]pyrimidin-6(2H)-one]
15 | ≤ 10 nM | ≤ 1 nM |  | CN1c2cc(OCc3ccc(Oc4ccnc(C(F)(F)F)c4)c(F)c3)nc(=O)n2CCC1(C)C [E89, 8-((3-fluoro-4-((2-(trifluoromethyl)pyridin-4-yl)oxy)benzyl)oxy)-1,2,2-trimethyl-3,4-dihydro-1H-pyrimido[1,6-a]pyrimidin-6(2H)-one]
16 | ≤ 10 nM | ≤ 1 nM |  | C[C@H]1CCn2c(cc(OCc3cc(F)c(Oc4ccc(F)c(F)c4)c(F)c3)nc2=O)N1C [E90, (S)-8-((4-(3,4-difluorophenoxy)-3,5-difluorobenzyl)oxy)-1,2-dimethyl-3,4-dihydro-1H-pyrimido[1,6-a]pyrimidin-6(2H)-one]
17 | ≤ 10 nM | ≤ 1 nM |  | C[C@H]1CCn2c(cc(OCc3ccc(Oc4ccc(C(F)(F)F)cc4)c(F)c3)nc2=O)N1C [E93, (S)-8-((3-fluoro-4-(4-(trifluoromethyl)phenoxy)benzyl)oxy)-1,2-dimethyl-3,4-dihydro-1H-pyrimido[1,6-a]pyrimidin-6(2H)-one]
18 | ≤ 100 nM | ≤ 1 nM |  | C[C@H]1CCn2c(cc(OCc3cc(F)c(Oc4cccc(F)c4)c(F)c3)nc2=O)N1C [E96]
19 | ≤ 10 nM | ≤ 1 nM |  | C[C@H]1CCn2c(cc(OCc3ccc(Oc4cccc(C(F)(F)F)c4)c(C#N)c3)nc2=O)N1C [E98, (S)-5-(((1,2-dimethyl-6-oxo-2,3,4,6-tetrahydro-1H-pyrimido[1,6-a]pyrimidin-8-yl)oxy)methyl)-2-(3-(trifluoromethyl)phenoxy)benzonitrile]
20 | ≤ 10 nM | ≤ 1 nM |  | C[C@@H]1CCn2c(cc(OCc3cc(F)c(Oc4ccc(F)c(F)c4)c(F)c3)nc2=O)N1C [E101, (R)-8-((4-(3,4-difluorophenoxy)-3,5-difluorobenzyl)oxy)-1,2-dimethyl-3,4-dihydro-1H-pyrimido[1,6-a]pyrimidin-6(2H)-one]
21 | ≤ 10 nM | ≤ 1 nM |  | C[C@@H]1CCn2c(cc(OCc3ccc(Oc4cccc(F)c4)c(C#N)c3)nc2=O)N1C [E102, (R)-5-(((1,2-dimethyl-6-oxo-2,3,4,6-tetrahydro-1H-pyrimido[1,6-a]pyrimidin-8-yl)oxy)methyl)-2-(3-fluorophenoxy)benzonitrile]
22 | ≤ 100 nM | ≤ 1 nM |  | C[C@H]1CCn2c(cc(OCc3cc(F)c(Oc4cnc(C(F)(F)F)nc4)c(F)c3)nc2=O)N1C [E104, (S)-8-((3,5-difluoro-4-((2-(trifluoromethyl)pyrimidin-5-yl)oxy)benzyl)oxy)-1,2-dimethyl-3,4-dihydro-1H-pyrimido[1,6-a]pyrimidin-6(2H)-one]
23 | ≤ 100 nM | ≤ 1 nM |  | C[C@H]1CCn2c(cc(OCc3ccc(Oc4ccc(C(F)(F)F)c(F)c4)cc3)nc2=O)N1C [E105, (S)-8-((4-(3-fluoro-4-(trifluoromethyl)phenoxy)benzyl)oxy)-1,2-dimethyl-3,4-dihydro-1H-pyrimido[1,6-a]pyrimidin-6(2H)-one]
